Legend:
[1] = system: smooth muscle cells of the aorta; test: Proliferation rate after endothelial denudation of the aorta (3H-thymidine incorporation); format: in vivo, WISTAR rat; conditions: 10 mg/kg orally, daily
Procedure: D/ Effect of the compounds of the invention on the proliferation rate after endothelial denudation. […] After pretreatment for 6 days (J6), denudation of the aortic endothelium of the animals is performed according to the following method: After anesthetizing the animal with methohexital (Brietal, 60 mg/kg intraperitoneally), an embolectomy probe (Fogarty 2F) is introduced into the aorta through the left carotid. Aortic deendothelialization is achieved by three successive passages of the probe. Three days after the endothelial denudation (J9), the rats are sacrificed and the aorta is removed, incubated in a physiological solution for 1 hour at 37° C., and then transferred into a ^3 H-thymidine-enriched Krebs- Henseleit solution (specific activity: […]) for 1 hour at 37° C. This is followed by a one-hour post-incubation in a Krebs-Henseleit solution lacking ^3 H-thymidine. After washing in a Tris-EDTA buffer, the proliferation rate is calculated from the incorporation of 3H-thymidine. [drawing 17]

[2] = system: pressor effects of phenylephrine, angiotensin II and vasopressin; test: Cardiovascular reactivity to vasopressors in wakeful rats, intravenous administration; format: in vivo, WISTAR rat; conditions: 10 mg/kg intravenously
Procedure: a) Effects of the compounds of the invention, administered intravenously, on cardiovascular reactivity to various vasopressors.
After a 30 to 60 min period of stabilization of wakeful WISTAR rats, a range of concentrations of phenylephrine (between 0 and 16 μg/kg) is injected intravenously.
Reading of the mean blood pressure and heart rate is carried out at the point where the pressor effect reaches its maximum. After a washing time of at least 2 hours, the test compound is administered intravenously (10 mg/kg) followed 15 minutes later by a new range of phenylephrine.
The same procedure is used to study the compounds of the invention for the pressor effects induced by angiotensin II (0 to 200 ng/kg) and vasopressin (0 to 200 ng/kg). These studies are carried out on different groups of animals.

rabbit aorta [3] = test: Vascular contraction of rabbit aorta induced by PDGF; design: species or system New Zealand rabbit; conditions: Oryctolagus cuniculus, 10^-5 M, preincubated 15 minutes
Procedure: (§1) Studies are carried out on rings, 3 mm in length, […] The vascular rings are immersed in a normal physiological solution or in a physiological solution lacking calcium (+0.2 mM of the chelating agent EGTA), which is thermostatically regulated at 37° C. and aerated with a 95% O2 +5% CO2 mixture. The rings are linked to a STATHAM tension sensor (UC2-GOULD). The optimal tension for each vessel is applied and a stabilization period of 90 min is observed for the preparations. a) Antivasoconstrictive activity of the compounds of the invention in a physiological medium.

Rabbit iliac artery = test: Contraction of rabbit iliac artery induced by caffeine in a medium without calcium; design: species or system New Zealand rabbit; conditions: Oryctolagus cuniculus, 10^-5 M, medium lacking calcium
Procedure: as §1, with “b)” for “a)”, “medium without calcium.” for “physiological medium.”

pig coronary artery = test: Vascular contraction of pig coronary artery induced by acetylcholine; conditions: Sus scrofa, 10^-5 M, preincubated 15 minutes
Procedure: Studies are carried out on rings, 3 mm in length, - or of coronary arteries from pigs anesthetized with nesdonal (8 mg/kg intravenously). The vascular rings are immersed in a normal physiological solution or in a physiological solution lacking calcium (+0.2 mM of the chelating agent EGTA), which is thermostatically regulated at 37° C. and aerated with a 95% O2 +5% CO2 mixture. The rings are linked to a STATHAM tension sensor (UC2-GOULD). The optimal tension for each vessel is applied and a stabilization period of 90 min is observed for the preparations. a) Antivasoconstrictive activity of the compounds of the invention in a physiological medium.

rabbit aorta [4] = test: Contraction of rabbit aorta induced by endothelin in a normal physiological medium; design: species or system New Zealand rabbit; conditions: Oryctolagus cuniculus, read-out: IC50, endothelin stimulus
Procedure: as §1

rabbit aorta [5] = test: Contraction of rabbit aorta induced by phorbol ester in a normal physiological medium; design: species or system New Zealand rabbit; conditions: Oryctolagus cuniculus, TPA 10^-5 M, read-out: IC50, phorbol ester stimulus
Procedure: as §1

Question: CN(CC1CCN(CCCOc2ccc(F)cc2)CC1)S(=O)(=O)c1cccc2cnccc12.Cl.Cl [Example 17, N-Methyl-N-{[1-[3-(p-fluorophenoxy)propyl]-4-piperidyl]methyl}-5-isoquinolinesulfonamide dihydrochloride] was tested. Which “reduction of the proliferation of smooth muscle cells” value [1] did it give?
Answer: 40%

Question: And the “reduction of the pressure effect of phenylephrine” value [2]?
Answer: 81%

Question: What about the inhibition at 10 µM (rabbit aorta [3]) of the same molecule?
Answer: 30%

Question: And the inhibition at 10 µM (Rabbit iliac artery)?
Answer: 63%

Question: What about the inhibition at 10 µM (pig coronary artery) of the same molecule?
Answer: 64%

Question: What about the IC50 (rabbit aorta [4]) of the same molecule?
Answer: 3.3 µM

Question: What about the IC50 (rabbit aorta [5]) of the same molecule?
Answer: 21 µM

— patent publication US5208243A, “5-isoquinolinesulfonamides” (Adir et Compagnie, priority 1991, dated 1993)
